Patent US20090048258A1, “Amide Compound” (priority 2005, published 2009)
Read-outs that look alike come from different tables or passages of the source.

Biological target: T1, Human DGAT1 (Homo sapiens, UniProt O75907)
T1 construct: my translation of the primer: M-G-DYKDDDD-GDRGSSRRR) (N); made in house; host or cells: Sf9 insect cells (recombinant baculovirus BAC-DGAT1, pFASTBAC1); microsome fraction
T1 sequence (O75907 1-488): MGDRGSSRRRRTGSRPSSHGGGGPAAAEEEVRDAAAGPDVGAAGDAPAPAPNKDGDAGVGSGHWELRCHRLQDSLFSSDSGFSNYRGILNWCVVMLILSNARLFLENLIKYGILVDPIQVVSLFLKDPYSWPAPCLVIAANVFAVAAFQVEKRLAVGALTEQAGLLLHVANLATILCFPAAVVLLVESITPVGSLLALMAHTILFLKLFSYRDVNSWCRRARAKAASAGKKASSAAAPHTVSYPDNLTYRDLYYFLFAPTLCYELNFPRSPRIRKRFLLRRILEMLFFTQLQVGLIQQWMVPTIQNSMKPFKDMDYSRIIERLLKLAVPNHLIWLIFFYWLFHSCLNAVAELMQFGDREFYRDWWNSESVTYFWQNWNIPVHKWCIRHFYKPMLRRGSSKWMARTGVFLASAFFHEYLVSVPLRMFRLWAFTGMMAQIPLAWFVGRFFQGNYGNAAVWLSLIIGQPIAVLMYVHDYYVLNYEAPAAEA
Experiment: DGAT inhibitory activity: [14C]-triglyceride synthesis by DGAT1 high expression Sf9 microsome
Assay type: biochemical
Details: 25 μM [14C]-Oleoyl-CoA, 32° C., 15 min, read-out: DGAT inhibitory activity (according to IC50)
Experimental: The primer base sequence is shown below.
The PCR reaction was conducted using a KOD-plus kit (TOYOBO). The obtained PCR product was electrophoresed on agarose gel (1%), the DNA fragment amplified by PCR was recovered from the gel, and then digested with restriction enzymes EcoRI and SpeI. […] Furthermore, using BAC-TO-BAC Baculovirus Expression System (Invitrogen), recombinant baculovirus BAC-DGAT1 was prepared.
SF9 cells were sown at 1×10^6 cells/ml on Sf-900II SEM medium (1 L, Invitrogen) containing 10% fetal calf serum (Trace), 50 mg/L gentamicin (Invitrogen) and 0.1% Pluronic F-68 (Invitrogen), and shaking culture was performed using a 2 L volume Erlenmeyer at 27° C., 100 rpm. After culturing for 24 hr, recombinant baculovirus BAC-DGAT1 (6.7 mL) was added, and the mixture was further cultured for 3 days. The culture medium was centrifuged at 2,000 rpm for 5 min to give virus-infected cells. The infected cells were washed with a phosphate buffered saline (Invitrogen), centrifuged under the same conditions, and the cells were preserved at −80° C. The cryopreserved cells were thawed in ice, suspended in buffer A (50 mM Tris buffer (30 mL, pH 7.4) containing 20% glycerol, 0.15 M NaCl) supplemented with Complete Protease Inhibitor (Boehringer), and ruptured 3 times with a Polytron homogenizer (Kinematica) at 20,000 rpm for 30 sec. The Sf9 microsome fractions were obtained by a conventional method and cryopreserved at −80° C. as a DGAT1 high expression Sf9 microsome.
As a DGAT1 reaction buffer, a solution having a composition of 100 mM Tris-HCl (pH 7.5), 250 mM sucrose, 150 mM MgCl2, 0.01% bovine serum albumin (BSA) was used. […] A mixture of 300 μL of chloroform:methanol (=1:2) was added to the reaction mixture to quench the reaction. The reaction mixture was sufficiently mixed and saline (200 μL) was added to partition the mixture between a chloroform layer (lower layer) and an aqueous layer (upper layer). The chloroform layer (50 μL) was spotted on a thin layer chromatography silica gel plate (TLC plate, Merck) and developed with a solvent (n-hexane:diethyl ether:ethyl acetate:acetic acid=74:15:15:1). The developed TLC plate was dried, contacted with a BAS imaging plate (manufactured by FUJIFILM) and measured with BAS2500 (manufactured by FUJIFILM) 16 hr later to numerically show the amount of [^14C]-triglyceride (TG amount) produced during the reaction. The inhibitory rate was calculated by the following formula:
Inhibitory rate (%)=(1−(TG amount in the case with addition of test compound−blank TG amount)/(control TG amount−blank TG amount))×100
The count of the triglyceride produced in the solution reacted without addition of the test compound was used as a “control TG amount”, and the count of the triglyceride produced in the solution reacted without addition of the test compound and DGAT1 high expression Sf9 microsome was used as a “blank TG amount”.

[1] = Table 2, 25 μM dioleoylglycerol
[2] = Table 1, 25 μM dioleoylglycerol

Row | Compound | IC50 [1] [nM] | IC50 [2] [nM]
1 | CCOc1ccc(C(=O)CCC(=O)Nc2cn(-c3ccccc3)nc2-c2ccc(F)cc2)cc1OCC [Example 108, 4-(3,4-diethoxyphenyl)-N-[3-(4-fluorophenyl)-1-phenyl-1H-pyrazol-4-yl]-4-oxobutanamide] | 50 to 500 | –
2 | O=C(CCC(=O)c1ccc2c(c1)CCO2)Nc1cc(-c2ccc(CO)cc2)cc(-c2ccccc2)n1 [Example 156, 4-(2,3-dihydro-1-benzofuran-5-yl)-N-{4-[4-(hydroxymethyl)phenyl]-6-phenylpyridin-2-yl}-4-oxobutanamide] | 50 to 500 | –
3 | CCOC(=O)c1sc(NC(=O)CCC(=O)c2ccc(OCC)c(OCC)c2)cc1-c1ccccc1 [Example 52, ethyl 5-{[4-(3,4-diethoxyphenyl)-4-oxobutanoyl]amino}-3-phenylthiophene-2-carboxylate] | – | 50 to 500
4 | CCOc1ccc(C(=O)CCC(=O)Nc2cc(-c3ccc(OCCN4CCOCC4)cc3)c3ccccc3n2)cc1OCC [Example 90, 4-(3,4-diethoxyphenyl)-N-{4-[4-(2-(morpholin-4-yl)ethoxy)phenyl]quinolin-2-yl}-4-oxobutanamide] | 50 to 500 | –
5 | COc1cc(-c2cc(NC(=O)CCC(=O)c3ccc4c(c3)CCO4)nc(-c3ccccc3)c2)cc(OC)c1OC [Example 182, 4-(2,3-dihydro-1-benzofuran-5-yl)-4-oxo-N-[6-phenyl-4-(3,4,5-trimethoxyphenyl)pyridin-2-yl]butanamide] | 500 to 10000 | –
6 | CCOc1ccc(C(=O)CCC(=O)Nc2cc3ccccc3c(N3CCCCC3)n2)cc1OCC [Example 85, 4-(3,4-diethoxyphenyl)-4-oxo-N-[1-(piperidin-1-yl)isoquinolin-3-yl]butanamide] | 500 to 10000 | –
7 | CCOc1ccc(C(=O)CCC(=O)Nc2cc(-c3cccc(OC)c3)cc(-c3ccccc3)n2)cc1OCC [Example 106, 4-(3,4-diethoxyphenyl)-N-[4-(3-methoxyphenyl)-6-phenylpyridin-2-yl]-4-oxobutanamide] | 50 to 500 | –
8 | CCOc1cc(C)c(C(=O)CCC(=O)Nc2cc(-c3ccccc3)c3cc(Cl)ccc3n2)cc1OCC [Example 73, N-(6-chloro-4-phenylquinolin-2-yl)-4-(4,5-diethoxy-2-methylphenyl)-4-oxobutanamide] | 50 to 500 | –
9 | COC(=O)CCc1ccc(-c2cc(NC(=O)CCC(=O)c3ccc4c(c3)CCO4)nc(-c3ccccc3)c2)cc1 [Example 158, methyl 3-[4-(2-{[4-(2,3-dihydro-1-benzofuran-5-yl)-4-oxobutanoyl]amino}-6-phenylpyridin-4-yl)phenyl]propanoate] | 50 to 500 | –
10 | CCOc1ccc(C(=O)CCC(=O)Nc2cc(-c3cccn3C(=O)OC(C)(C)C)cc(-c3ccccc3)n2)cc1OCC [Example 118, tert-butyl 2-(2-{[4-(3,4-diethoxyphenyl)-4-oxobutanoyl]amino}-6-phenylpyridin-4-yl)-1H-pyrrole-1-carboxylate] | 500 to 10000 | –
11 | CCOc1ccc(C(=O)CCC(=O)Nc2cc(-c3ccc(C(=O)OC)cc3)cc(-c3ccccc3)n2)cc1OCC [Example 112, methyl 4-(2-{[4-(3,4-diethoxyphenyl)-4-oxobutanoyl]amino}-6-phenylpyridin-4-yl)benzoate] | 500 to 10000 | –
12 | COc1cc2c(cc1OC)C(=O)[C@H](CC(=O)Nc1nc(-c3ccccc3)c(Cc3ccccc3)s1)C2 (stereo in doubt) [Example 6, N-(5-benzyl-4-phenyl-1,3-thiazol-2-yl)-2-(5,6-dimethoxy-1-oxo-2,3-dihydro-1H-inden-2-yl)acetamide] | – | 10 to 50

Next, values leading:

Row | IC50 [1] [nM] | IC50 [2] [nM] | Compound
13 | – | 500 to 10000 | O=C(O)COc1ccc(C(=O)CCC(=O)Nc2nc(-c3ccccc3)c(Cc3ccccc3)s2)cc1 [Example 38]
14 | 500 to 10000 | – | CCOc1ccc(C(=O)CCC(=O)Nc2cc(-c3cccc(CCC(=O)O)c3)cc(-c3ccccc3)n2)cc1OCC [Example 141, 3-[3-(2-{[4-(3,4-diethoxyphenyl)-4-oxobutanoyl]amino}-6-phenylpyridin-4-yl)phenyl]propanoic acid]
15 | ≤ 10 | – | CCOc1ccc(C(=O)CCC(=O)Nc2cc(-c3ccccc3)c3ccccc3n2)cc1OCC [Example 74, 4-(3,4-diethoxyphenyl)-4-oxo-N-(4-phenylquinolin-2-yl)butanamide]
16 | 50 to 500 | – | CCOC(=O)c1c(NC(=O)CCC(=O)c2ccc(OCC)c(OCC)c2)sc(Cc2ccccc2)c1-c1ccccc1 [Example 96, ethyl 5-benzyl-2-{[4-(3,4-diethoxyphenyl)-4-oxobutanoyl]amino}-4-phenylthiophene-3-carboxylate]
17 | 10 to 50 | – | CCOc1ccc(C(=O)CCC(=O)Nc2cc(-c3ccccc3)c3ccccc3n2)cc1 [Example 79, 4-(4-ethoxyphenyl)-4-oxo-N-(4-phenylquinolin-2-yl)butanamide]
18 | – | 10 to 50 | CCOc1ccc(C(=O)CCC(=O)Nc2ccn(Cc3ccccc3)c2-c2ccccc2)cc1OCC [Example 19, N-(1-benzyl-2-phenyl-1H-pyrrol-3-yl)-4-(3,4-diethoxyphenyl)-4-oxobutanamide]
19 | – | 10 to 50 | COCOc1ccc(C(=O)CCC(=O)Nc2nc(-c3ccccc3)c(Cc3ccccc3)s2)cc1 [Example 32, N-(5-benzyl-4-phenyl-1,3-thiazol-2-yl)-4-oxo-4-[4-(methoxymethoxy)phenyl]butanamide]
20 | – | 50 to 500 | CCCCc1sc(NC(=O)CCC(=O)c2ccc(OCC)c(OCC)c2)cc1-c1ccccc1 [Example 58, N-(5-butyl-4-phenyl-2-thienyl)-4-(3,4-diethoxyphenyl)-4-oxobutanamide]
21 | – | 50 to 500 | CCOc1ccc(C(=O)CCC(=O)Nc2cc(-c3ccccc3)nc(-c3ccccc3)n2)cc1OCC [Example 14, 4-(3,4-diethoxyphenyl)-N-(2,6-diphenylpyrimidin-4-yl)-4-oxobutanamide]
22 | – | 50 to 500 | CCOC(=O)Cc1ccc(C(=O)CCC(=O)Nc2nc(-c3ccccc3)c(Cc3ccccc3)s2)cc1 [Example 34]
23 | – | ≤ 10 | CCOc1ccc(C(=O)CCC(=O)Nc2nc(-c3ccccc3)c(Cc3ccccc3)s2)cc1Cl [Example 36, N-(5-benzyl-4-phenyl-1,3-thiazol-2-yl)-4-(3-chloro-4-ethoxyphenyl)-4-oxobutanamide]
24 | – | 50 to 500 | CCOc1ccc(C(=O)CCC(=O)Nc2nc(-c3ccccc3)c(Cc3ccccc3)s2)cc1/C=C/C(=O)O [Example 31, (2E)-3-(5-{4-[(5-benzyl-4-phenyl-1,3-thiazol-2-yl)amino]-4-oxobutanoyl}-2-ethoxyphenyl)acrylic acid]
25 | – | 10 to 50 | CCOc1ccc(C(=O)CCC(=O)Nc2cc(-c3ccccc3)c(Cc3ccc(Br)cc3)s2)cc1OCC [Example 47, N-[5-(4-bromobenzyl)-4-phenyl-2-thienyl]-4-(3,4-diethoxyphenyl)-4-oxobutanamide]
26 | – | 50 to 500 | CCOC(=O)COc1ccc(C(=O)CCC(=O)Nc2nc(-c3ccccc3)c(Cc3ccccc3)s2)cc1 [Example 37]
27 | 500 to 10000 | – | CCOc1ccc(C(=O)CCC(=O)Nc2cc3ccccc3c(-c3ccccc3)n2)cc1OCC [Example 84, 4-(3,4-diethoxyphenyl)-4-oxo-N-(1-phenylisoquinolin-3-yl)butanamide]
28 | – | 10 to 50 | CCCc1cc(C(=O)CCC(=O)Nc2nc(-c3ccccc3)c(Cc3ccccc3)s2)ccc1OCC [Example 24, N-(5-benzyl-4-phenyl-1,3-thiazol-2-yl)-4-(4-ethoxy-3-propylphenyl)-4-oxobutanamide]
